Source: patent publication US20100239646A1, “Sublingual methotrexate and methotrexate patches” (priority 2009, published 2010)

Key:
[1] = test system: aldehyde oxidase; assay: Aldehyde oxidase mediated oxidation of methotrexate
Description: (§1) In order to unravel the mechanism of methotrexate non-responsiveness M. G. Nair investigated the metabolism of methotrexate and its potential deactivation pathways. […] 3; 29-34 (1996)].
The aldehyde oxidase mediated oxidation of methotrexate vs. certain metabolically inert antifolates was investigated by M. Gopal Nair. [Med. Chem. Research. 9:176-185, 1999].

[2] = cited from earlier work
[3] = women; sublingual versus oral solid dosage unit; cited from earlier work
[4] = oral dosage form; cited from earlier work
[5] = Absorption of oral methotrexate in a group of arthritic patients (Example-1); assay type: in vivo, human; conditions: oral dosage form
Method: If 10 mg of the drug is given by the oral route only 2.0 mg is absorbed. If the optimal therapeutic dosage is tailored based on this low absorption, then the therapeutically effective dose without manifestation of significant toxic effects would be an effective accumulation of 2.0 mg of the drug in the plasma. It is reasonable to assume for antifolates that an increase of 50% of drug level in plasma relative to the accepted safe level would lead to disastrous toxic consequences including severe bone marrow depression. Therefore an increase of bioavailability from 20 to 30 percent in this case would effectively increase drug concentration by 50% in the plasma. The 10 percent increase in Bioavailability may well be envisioned by slight pH changes in the gut of patients who may be taking antacids, or medicine to modulate acid secretions, taking other medications or unknown factors. The present invention addresses this very crucial safety issues and provides a means to stabilize drug concentration in plasma to predictable levels by replacing oral dosage form of methotrexate with the sublingual dosage form, the absorption of which is independent of the biochemical pharmacology of human gut.

[6] = test system: patients with rheumatoid arthritis; assay: Conventional therapy of rheumatoid arthritis with methotrexate (Rheumatrex); assay type: in vivo, human
Description: as §1

[7] = cited from earlier work; remark: listed apart in the source

For `CN(Cc1nc2c(N)nc(N)nc2[nH]c1=O)c1ccc(C(=O)N[C@@H](CCC(=O)O)C(=O)O)cc1` [7-hydroxymethotrexate], the “antifolate activity of the oxidation product” value [1] was “inactive”.

In the case of `Nc1nc(=O)c2c([nH]1)NCC(CNc1ccc(C(=O)N[C@@H](CCC(=O)[O-])C(=O)[O-])cc1)N2C=O.[Ca+2]` (stereo partly shown) [Calcium folinate], the “time to improvement of odynophagia” value ([2]; 15 mg orally four times a day after methotrexate overdose) is listed as no more than 24 h.

For `C[C@]12CC[C@@H]3c4ccc(O)cc4CC[C@H]3[C@@H]1CC[C@@H]2O` [estradiol], the “share of the oral dose needed by the sublingual route to achieve the same bioavailability” value [3] is given as 20-25%.

In the case of `CN(Cc1cnc2nc(N)nc(N)c2n1)c1ccc(C(=O)N[C@@H](CCC(=O)O)C(=O)O)cc1` [methotrexate], the theoretical bioavailability [4] is given as 20-80%, the absorption [5] is given as 20% and the “percentage of patients who were methotrexate non-responders” value [6] is given as 40%. The drug related toxicity ([6]; some patients) was “elevation of liver enzymes”, the solubility [7] was “pH dependent” and the “toxic effects of the incorrect dose” value ([2]; 60 mg weekly instead of 15 mg weekly, oral tablets, rheumatoid arthritis patient) was “odynophagia, dysphagia and oesophagitis”. The severe unwanted effects ([2]; weekly dose taken in error daily or on several days each week) was “neutropenia, hepatotoxicity and bone marrow suppression”.
